Measurements published in the NIST ThermoML archive (doi:10.1021/acs.jced.7b00464).
± gives the expanded uncertainty stated by the source.

Assay: mn = molality of the nth substance listed, in mol/kg
Conditions: 101.3 kPa, Liquid; for speed of sound: Frequency=3 MHz, Single path-length method; for mass density: Vibrating tube method

CCCCn1cc[n+](C)c1.[Br-] [1-butyl-3-methylimidazolium bromide] + O
Conditions | mass density, 293.15 K [kg/m3] | mass density, 298.15 K [kg/m3] | mass density, 303.15 K [kg/m3] | mass density, 308.15 K [kg/m3] | speed of sound, 293.15 K [m/s] | speed of sound, 298.15 K [m/s] | speed of sound, 303.15 K [m/s] | speed of sound, 308.15 K [m/s]
m1 = 0.1009 | 1003.27 ± 0.31 | 1002.03 ± 0.31 | 1000.58 ± 0.31 | 998.918 ± 0.31 | 1493.5 ± 1 | 1506.5 ± 1 | 1517.9 ± 1 | 1527.7 ± 1
m1 = 0.2003 | 1008.11 ± 0.31 | 1006.83 ± 0.31 | 1005.32 ± 0.31 | 1003.62 ± 0.31 | 1503.6 ± 1.1 | 1515.8 ± 1.1 | 1526.2 ± 1.1 | 1535.2 ± 1.1
m1 = 0.2985 | 1012.68 ± 0.31 | 1011.33 ± 0.31 | 1009.77 ± 0.31 | 1008 ± 0.31 | 1512.9 ± 1.1 | 1524.5 ± 1.1 | 1534.1 ± 1.1 | 1542.4 ± 1.1
m1 = 0.4006 | 1017.54 ± 0.31 | 1016.13 ± 0.31 | 1014.5 ± 0.31 | 1012.7 ± 0.31 | 1522.6 ± 1.1 | 1533.1 ± 1.1 | 1542 ± 1.1 | 1549.4 ± 1.1

CCCCn1cc[n+](C)c1.[Cl-] [1-butyl-3-methylimidazolium chloride] + O
Conditions | mass density, 293.15 K [kg/m3] | mass density, 298.15 K [kg/m3] | mass density, 303.15 K [kg/m3] | mass density, 308.15 K [kg/m3] | speed of sound, 293.15 K [m/s] | speed of sound, 298.15 K [m/s] | speed of sound, 303.15 K [m/s] | speed of sound, 308.15 K [m/s]
m1 = 0.101 | 999.535 ± 0.3 | 998.308 ± 0.3 | 996.883 ± 0.3 | 995.222 ± 0.3 | 1496.7 ± 1 | 1509.8 ± 1 | 1521.1 ± 1 | 1530.8 ± 1
m1 = 0.1997 | 1000.82 ± 0.3 | 999.565 ± 0.3 | 998.065 ± 0.3 | 996.342 ± 0.3 | 1510.4 ± 1.1 | 1522.7 ± 1.1 | 1533 ± 1.1 | 1542 ± 1
m1 = 0.3007 | 1002.1 ± 0.3 | 1000.79 ± 0.3 | 999.244 ± 0.3 | 997.484 ± 0.3 | 1523.6 ± 1.1 | 1534.7 ± 1.1 | 1544.3 ± 1.1 | 1552.7 ± 1.1
m1 = 0.4004 | 1003.37 ± 0.3 | 1002 ± 0.3 | 1000.4 ± 0.3 | 998.586 ± 0.3 | 1536.1 ± 1.1 | 1546.5 ± 1.1 | 1555.3 ± 1.1 | 1562.6 ± 1.1
